Data taken from the supplement of paper PMC11451515.

Test system: P12-Ichikawa
Test: cell viability relative to DMSO control; higher = less cytotoxic
Conditions: 48 h
Summary of the method: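 Viability values are per-plate percentages of DMSO wells, with background from cell-free wells. Library compounds in DMSO were pin-dosed, in an 11-point threefold series from 47 μM to 0.79 nM, onto NOMO1 or SEM (500 cells/well) or P12-Ichikawa (1000 cells/well) leukemia cells in 1536-well plates (5 μl). Those cells had been adapted for at least four passages in each medium, and CellTiter-Glo One luminescence was read after 48 h at 37°C.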

[1] = HPLM + 10% dialyzed FBS, 0.000781 µM
[2] = HPLM + 10% dialyzed FBS, 0.00234 µM
[3] = HPLM + 10% dialyzed FBS, 0.00702 µM
[4] = HPLM + 10% dialyzed FBS, 0.0211 µM
[5] = HPLM + 10% dialyzed FBS, 0.0632 µM
[6] = HPLM + 10% dialyzed FBS, 0.19 µM
[7] = HPLM + 10% dialyzed FBS, 0.569 µM
[8] = HPLM + 10% dialyzed FBS, 1.71 µM
[9] = HPLM + 10% dialyzed FBS, 5.12 µM
[10] = HPLM + 10% dialyzed FBS, 15.4 µM
[11] = HPLM + 10% dialyzed FBS, 46.1 µM
[12] = RPMI 5 mM glucose + 10% FBS, 0.000781 µM
[13] = RPMI 5 mM glucose + 10% FBS, 0.00234 µM
[14] = RPMI 5 mM glucose + 10% FBS, 0.00702 µM
[15] = RPMI 5 mM glucose + 10% FBS, 0.0211 µM
[16] = RPMI 5 mM glucose + 10% FBS, 0.0632 µM
[17] = RPMI 5 mM glucose + 10% FBS, 0.19 µM
[18] = RPMI 5 mM glucose + 10% FBS, 0.569 µM
[19] = RPMI 5 mM glucose + 10% FBS, 1.71 µM
[20] = RPMI 5 mM glucose + 10% FBS, 5.12 µM
[21] = RPMI 5 mM glucose + 10% FBS, 15.4 µM
[22] = RPMI 5 mM glucose + 10% FBS, 46.1 µM
[23] = RPMI 5 mM glucose + 10% dialyzed FBS, 0.000781 µM
[24] = RPMI 5 mM glucose + 10% dialyzed FBS, 0.00234 µM
[25] = RPMI 5 mM glucose + 10% dialyzed FBS, 0.00702 µM
[26] = RPMI 5 mM glucose + 10% dialyzed FBS, 0.0211 µM
[27] = RPMI 5 mM glucose + 10% dialyzed FBS, 0.0632 µM
[28] = RPMI 5 mM glucose + 10% dialyzed FBS, 0.19 µM
[29] = RPMI 5 mM glucose + 10% dialyzed FBS, 0.569 µM
[30] = RPMI 5 mM glucose + 10% dialyzed FBS, 1.71 µM
[31] = RPMI 5 mM glucose + 10% dialyzed FBS, 5.12 µM
[32] = RPMI 5 mM glucose + 10% dialyzed FBS, 15.4 µM
[33] = RPMI 5 mM glucose + 10% dialyzed FBS, 46.1 µM

SMILES	cell viability [1]	cell viability [2]	cell viability [3]	cell viability [4]	cell viability [5]	cell viability [6]	cell viability [7]	cell viability [8]	cell viability [9]	cell viability [10]	cell viability [11]	cell viability [12]	cell viability [13]	cell viability [14]	cell viability [15]	cell viability [16]	cell viability [17]	cell viability [18]	cell viability [19]	cell viability [20]	cell viability [21]	cell viability [22]	cell viability [23]	cell viability [24]	cell viability [25]	cell viability [26]	cell viability [27]	cell viability [28]	cell viability [29]	cell viability [30]	cell viability [31]	cell viability [32]	cell viability [33]
O=C(Nc1ccncc1)C(=O)c1cn(Cc2ccc(Cl)cc2)c2ccccc12	103%	101%	111%	96.6%	70.5%	35%	18.4%	21.8%	40.1%	35.2%	46.5%	104%	98.6%	107%	96.5%	62.8%	34.8%	16.5%	24.3%	34.1%	39.2%	44.1%	90.9%	94.2%	97.2%	98.2%	79.1%	46.5%	20.8%	23.1%	34.6%	36.2%	46.6%
Cc1n[nH]c(C)c1Cc1sc2c(c1C(=O)N1C[C@H](O)CO1)c(=O)n(C)c(=O)n2CC(C)C	116%	117%	119%	121%	109%	98.8%	93.4%	92.6%	94.3%	91.4%	83.4%	117%	118%	131%	120%	109%	107%	95.6%	95.8%	84.3%	89.9%	83.8%	113%	118%	114%	114%	107%	98.2%	91.6%	92%	94%	88.5%	83.7%
O=C(O)CCc1ccc(NCc2cccc(Oc3ccccc3)c2)cc1	94.5%	107%	102%	104%	105%	111%	108%	109%	108%	119%	104%	99.3%	105%	111%	105%	118%	111%	109%	109%	110%	122%	118%	88.6%	96.5%	103%	110%	103%	104%	103%	104%	100%	98.6%	99.9%
